Read-outs that look alike come from different tables or passages of the source.
Key:
[1] = test system: breast cancer cell line HS578T; test: In vitro cytotoxicity, MTS assay, breast cancer cells; type: cell-based, human; details: 7 days exposure, dose causing death to 50% of cells, read-out: Cell Survival ED 50 Breast
Experimental: (§1) In these experiments, cells were seeded at 400 cells per well 24 hours prior to addition of the test compound. Cells were grown at 37° C. in a humidified atmosphere of 95% air, 5% CO2 for 7 days with daily media changes. Cytotoxicity was assessed using the CellTiter 96 Aqueous Proliferation Assay (Promega, Madison, Wis.).

[2] = test system: pancreas cancer cell line HS766T; test: In vitro cytotoxicity, MTS assay, pancreas cancer cells; type: cell-based, human; details: Homo sapiens, 168 h, 7 days exposure, dose causing death to 50% of cells, read-out: Cell Survival ED 50 Pancreas
Experimental: as §1

[3] = test system: hormone-independent prostate cancer cell line DU145; test: In vitro cytotoxicity, MTS (CellTiter 96 Aqueous Proliferation Assay), prostate cancer cells; type: cell-based, human; details: 7 days exposure, MTS, dose causing death to 50% of cells, read-out: Cell Survival ED 50 Prostate
Experimental: FIG. 1 is a graph which compares the effects of the compound of Example 8 on normal human endothelial cells (AH-9) and human prostate cancer cells (DU145). Cells were exposed to the compound for seven days at the concentrations indicated. Cytotoxicity was assessed using the MTS assay.
as §1
In a separate experiment (FIG. 1), normal human endothelial cells (AH-9) and human prostate cancer cells (DU145) were exposed to increasing concentrations of the compound of Example 8 for seven days.

[4] = Mouse formalin test pain model, late phase; type: in vivo
Experimental: The formalin test was conducted using standard procedures (Hunskaar et al., J. Neurosci. Meth. 14:69-76 (1985). Mice (male CF-1, 20-25 g) were placed in Plexiglass jars for at least 1 hr to accommodate to the environment
The animals received either test drug at 5-50 mg/kg p.o. or the appropriate volume of vehicle (normal saline). Thirty minutes after p.o. dosing mice were injected with formalin (20 μl of 2.5% formaldehyde solution in saline) into the dorsal surface of the right hind paw.
All experiments were done in a blinded manner. The late phase of the formalin response was measured as licking/biting from 10-50 minutes after formalin injection. Differences between groups were analyzed by one-way analysis of variance (ANOVA), A P value ≦0.05 was considered significant. Reduction in the time spent licking/biting in the late phase of the formalin response is considered an indication of a reduction in chronic pain.

Structure (SMILES)	EC50 ([1]; Homo sapiens, Hs-578T, 168 h) [nM]	EC50 [2] [nM]	EC50 ([3]; Homo sapiens, DU-145, 168 h) [µM]	also measured
Cc1ccc(NC(=N)N(CCc2c[nH]c3ccccc23)c2ccc(C)cc2)cc1 [Example 9, 1-[(N,N′-di-p-tolyl)guanidinyl]-2-(3-indolyl)ethane]	4200	500	5.1	
Cc1ccc(NC(=NCCCOCCCCOCCCN=C(Nc2ccc(C)cc2)Nc2ccc(C)cc2)Nc2ccc(C)cc2)cc1 [Example 15]				EC50 [1]: 900 nM; EC50 [3]: 2.5 µM
Cc1ccc(N=C(Nc2ccc(C)cc2)N2CCOCCOCCN(C(=Nc3ccc(C)cc3)Nc3ccc(C)cc3)CCOCCOCC2)cc1 [Example 16, 7,16-Di-[(N,N′-Di-p-tolyl)amidino]-1,4,10,13-tetraoxa-7,16-diazacyclooctadecane]	600		1	
Cc1ccc(N(c2ccc(C)cc2)N2CCC(C#N)(c3ccccc3)CC2)cc1 [Example 14, 4-Cyano-1-[(N,N′-di-p-tolyl)amino]-4-phenylpiperidine]	4600		10.8	
C[C@]12CC[C@@H]3c4ccc(OC(=O)N(CCCl)CCCl)cc4CC[C@H]3[C@@H]1CC[C@@H]2O [Estramustine, reference compound]			11	
Cc1ccc(NC(=N)N(CCCCN)c2ccc(C)cc2)cc1 [Example 4, 1-Amino-4-[(N,N′-di-p-tolyl)guanidinyl]butane]	1700	200	2.5	
COc1cccc2c1C(=O)c1c(O)c3c(c(O)c1C2=O)C[C@@](O)(C(=O)CO)C[C@@H]3O[C@H]1C[C@H](N)[C@H](O)[C@H](C)O1 [Doxorubicin, doxorubicin, reference compound]	2000	300	7	
CC[C@]1(O)C[C@@H]2CN(CCc3c([nH]c4ccccc34)[C@@](C(=O)OC)(c3cc4c(cc3OC)N(C)[C@H]3[C@@](O)(C(=O)OC)[C@H](OC(C)=O)[C@]5(CC)C=CCN6CC[C@]43[C@@H]65)C2)C1 [Vinblastine, vinblastine, reference compound]	1200	200	4	
COc1cc([C@@H]2c3cc4c(cc3[C@@H](O[C@@H]3O[C@@H]5CO[C@@H](C)O[C@H]5[C@H](O)[C@H]3O)[C@H]3COC(=O)[C@H]23)OCO4)cc(OC)c1O [Etoposide, etoposide, reference compound]	400	2000	0.6	
Cc1ccc(NC(=N)N(CCCCN(C(=N)Nc2ccc(C)cc2)c2ccc(C)cc2)c2ccc(C)cc2)cc1 [Example 5, 1,4-Di-[(N,N′-di-p-tolyl)guanidinyl]butane]	300		0.7	
Cc1ccc(NC(=N)N(CCN(C(=N)Nc2ccc(C)cc2)c2ccc(C)cc2)c2ccc(C)cc2)cc1 [Example 21, 1,2-Di-[(N,N′-di-p-tolyl)guanidinyl]ethane]				late phase pain versus control vehicle (post-hoc Newman-Kuels test) ([4]; 30 mg/kg orally): significant at P<0.05; effect on general behavior of the animals ([4]; at the doses effective in the formalin test, p.o.): did not affect the general behavior; time spent licking, late phase of formalin response (in words) ([4]; oral administration, 5-50 mg/kg, male CF-1 mice): dose-dependent reduction in the time spent licking

— US6875759B1, “Substituted guanidines and the use thereof” (Kadmus Pharmaceuticals, priority 1999, dated 2005)
